Source: PMC10412636, “An analysis of interactions between three structurally diverse anthocyanidins, as well as their glucosides, and model biological membranes, albumin, and plasmid DNA” (Scientific Reports, 2023)

Experiments:
[1] = DPH probe fluorescence anisotropy in MM liposomes; conditions: MM, negative = increase in anisotropy
Method: (§1) Two types of liposomes were used to study interactions with biological membranes: liposomes mimicking the composition of cancer cell membranes (mimic membrane liposome—MM) and liposomes formed from lipids extracted from human blood erythrocyte membranes (red blood cell membrane liposome—RBCM). […] Both lipids, dissolved in chloroform (MM liposome) and n-decane (RBCM liposome), were evaporated under a nitrogen atmosphere, and then dried in a desiccator for 90 min under a vacuum. The obtained dry lipid film was hydrated in phosphate buffer, pH 7.4, obtaining a concentration of 0.1 mg/ml, and then vortexed for one minute until a homogeneous, milky suspension was observed. The mixture was sonicated (Sonic, Milano, Italia) for 15 min keeping the sample in a bath of ice water, thus providing a cooling temperature of 0 °C. The suspension was then processed (extrusion) through polycarbonate filters with pore diameters of 100 and 200 nm using a Lipex extruder (Evonik). Liposomes, which had been prepared according to this procedure, was used in fluorimetric studies.
(§2) To investigate these properties three fluorescent probes were used: MC540, TMA-DPH, and DPH. MC540 localizes to the outer, hydrophilic part of the membrane, within the region of the glycerol skeleton[44]. Changes in the fluorescence intensity of this probe were formulated as the relative change in intensity to the control as a function of anthocyanins concentration. The TMA-DPH and DPH probes are supposed to locate nearer to the interface and in the hydrophobic region, respectively[45]. The measurement of changes in the anisotropy of the TMA-DPH and DPH probes allowed us to reflect the mobility of the fluorescent probes in the membrane, and therefore to determine the fluidity of the bilayer[46]. Fluorescence anisotropy was calculated using the formula[47]:1 A=I‖-GI⊥/I‖+2GI⊥ where I‖ and I⊥ are the intensity of fluorescence in parallel and perpendicular directions, to the plane of polarization of the excitation wave, respectively. G is an apparatus constant that depends on the emission wavelength.
(§3) Liposomes (the concentration of lipids in the sample was 0.1 mg/ml) were incubated for 30 min with the appropriate probe (dissolved in DMF, 1 µM concentration), and then the tested anthocyanins were added (final concentration of 1 to 30 µM). The control sample consisted of liposomes and a fluorescent probe. Fluorescence was measured on a fluorimeter (Cary Eclipse, Varian, San Diego, USA) at 37 °C. The excitation wavelengths λex and emission wavelengths λem respectively: MC540—λexc = 540 nm, λem = 590 nm; DPH—λexc = 360 nm, λem = 425 nm. nm; TMA-DPH—λexc = 340 nm, λem = 430 nm.

[2] = MC540 probe fluorescence intensity in RBCM liposomes; design: species or system human; conditions: 37 °C, positive = decrease
Method: as §1, §2, §3

[3] = DPH fluorescence quenching, dissociation constant with MM liposome membrane; type: binding; conditions: 37 °C
Method: as §1
(§4) The phenomenon of quenching the fluorescence of the DPH probe by biologically active substances enabled us to evaluate the partition coefficient (Kd, dissociation constant) of anthocyanins with both MM and RBCM liposome membranes. For this purpose, changes in the fluorescence intensity of this probe were checked and the coefficient was calculated using the equation[48]:2 1/F0/F-1=Kd/[liposomes]×1/[anthocyanins]+1/liposomes where F0—fluorescence intensity in the absence of anthocyanins (control sample), F—fluorescence intensity in the presence of anthocyanins, [liposomes]—concentration of liposomes in mg/ml, [anthocyanins]—concentration of anthocyanins tested mg/ml.
as §3

[4] = MC540 probe fluorescence intensity in MM liposomes; conditions: 37 °C, positive = decrease
Method: as §1, §2, §3

[5] = TMA-DPH probe fluorescence anisotropy in MM liposomes; conditions: negative = increase in anisotropy
Method: as §1, §2, §3

pHbApr-1-Neo plasmid DNA = assay: TCSPC-FCS of PicoGreen-labelled plasmid DNA with anthocyanins; type: binding
Method: To evaluate the biological interaction with DNA molecules the anthocyanins were initially dissolved in ETOH (1 mM). […] Mixing of such solutions with the aqueous DNA solutions used in the studies never exceeded 1% concentration ETOH (v/v) in the final solution. The DNA plasmid was labelled by PicoGreen (CPicoGreen/CDNAbp = 0.02)[52]. The pHbApr-1-Neo plasmid (10 kbp and contour length 3.4 µm) was a generous gift from the laboratory of Prof. Maciej Ugorski (Department of Biochemistry and Molecular Biology, Wrocław University of Environmental and Life Sciences Wroclaw, Poland). PicoGreen-labelled DNA samples mixed with the appropriate amount of anthocyanins were left overnight and then measured. The increasing concentration of anthocyanins in the tested samples was expressed as the ratio of the molar concentration of anthocyanins per molar concentration of DNA base pairs in a given sample (comp/bp). The 100 µl samples were measured in Ibidi 8-well chambers. Each point on the graph is a single sample (average of 10 measurements). All measurements were performed at room temperature (25 °C). Time-correlated single-photon counting fluorescence correlation spectroscopy (TCSPC-FCS) was used to study the interaction of plasmid DNA at the single molecule level with all tested anthocyanins. […] Low power of 1uW (at the back aperture of the objective) was chosen to minimize photobleaching and saturation. In the detection plane, a pinhole (50um in diameter) was used and the signal was collected by a single photon avalanche diode (SPAD, Microphoton Devices, Bolzano, Italy). Photon arrival times were stored using fast electronics (Picoharp 300, PicoQuant) in time-tagged time-resolved recording mode. Two independent times were assigned to each detected photon: (1) a time after the beginning of the measurement and (2) a time after the previous laser pulse. The FCS data analysis was done using home-built routines (DevC++, Bloodshed Software and OriginPro70, OriginLab Corporation). The TCSPC data analysis was performed using SymPhoTime software (PicoQuant). Further details of the data evaluation are given elsewhere.

[6] = DPH probe fluorescence anisotropy in RBCM liposomes; design: species or system human; conditions: RBCM, negative = increase in anisotropy
Method: as §1, §2, §3

[7] = biological target: human serum albumin (HSA) (Homo sapiens, UniProt P02768); assay: Quenching of natural fluorescence of human serum albumin; type: binding; conditions: HSA […] 10^–5 M, 37 °C
Method: The phenomenon of quenching the natural fluorescence of human serum albumin (HSA) was used to investigate the potential interaction of anthocyanins with this protein. […] Anthocyanins with concentrations ranging from 1 to 30 µM were added to HSA dissolved in phosphate buffer (1.5 × 10^–5 M) and then incubated at 37 °C for 20 min. Emission spectra were performed on a fluorimeter Cary Eclipse (Varian, San Diego, USA) at 37 °C. HSA fluorescence was excited with a wavelength of λ = 280 nm, the emission was measured in the range from 286 to 460 nm, and the fluorescence intensity was read at 345 nm where the emission maximum of HSA was located.
The Stern–Volmer equation was used to thoroughly describe the quenching mechanism of natural fluorescence and to determine the bindings parameters of HSA: anthocyanin complexes:4 F0/F=1+Kqτ0Q=1+KSV[Q] where F0—fluorescence intensity in the absence of anthocyanins (control sample), F—fluorescence intensity in the presence of anthocyanins, KSV—Stern–Volmer quenching constant (KSV = Kq·τ0), [Q]—concentration of quencher (tested compound), Kq—bimolecular quenching constant, τ0—a lifetime of the fluorophore in the absence of quencher the fluorescence lifetime of a biopolymer is calculated as 5 × 10^–9 s[51].
The apparent binding constants (Kb) and the number of binding sites (n) can be calculated using the following equation:5 log(F0-F/F]=logKb+nlog[Q]
F0 and F are the fluorescence intensities before and after the addition of the quencher. From the linear plot of log (F0 − F)/F versus log [Q], the value of Kb was obtained from the intercept.

[8] = TMA-DPH probe fluorescence anisotropy in RBCM liposomes; design: species or system human; conditions: negative = increase in anisotropy
Source text: Two types of liposomes were used to study interactions with biological membranes: liposomes mimicking the composition of cancer cell membranes (mimic membrane liposome—MM) and liposomes formed from lipids extracted from human blood erythrocyte membranes (red blood cell membrane liposome—RBCM). […] The RBCM liposome was according to the methodology described previously[42] with minor modifications[43]. Both lipids, dissolved in chloroform (MM liposome) and n-decane (RBCM liposome), were evaporated under a nitrogen atmosphere, and then dried in a desiccator for 90 min under a vacuum. The obtained dry lipid film was hydrated in phosphate buffer, pH 7.4, obtaining a concentration of 0.1 mg/ml, and then vortexed for one minute until a homogeneous, milky suspension was observed. The mixture was sonicated (Sonic, Milano, Italia) for 15 min keeping the sample in a bath of ice water, thus providing a cooling temperature of 0 °C. The suspension was then processed (extrusion) through polycarbonate filters with pore diameters of 100 and 200 nm using a Lipex extruder (Evonik). Liposomes, which had been prepared according to this procedure, was used in fluorimetric studies.
To investigate these properties three fluorescent probes were used: MC540, TMA-DPH, and DPH. MC540 localizes to the outer, hydrophilic part of the membrane, within the region of the glycerol skeleton[44]. […] The TMA-DPH and DPH probes are supposed to locate nearer to the interface and in the hydrophobic region, respectively[45]. The measurement of changes in the anisotropy of the TMA-DPH and DPH probes allowed us to reflect the mobility of the fluorescent probes in the membrane, and therefore to determine the fluidity of the bilayer[46]. Fluorescence anisotropy was calculated using the formula[47]:1 A=I‖-GI⊥/I‖+2GI⊥ where I‖ and I⊥ are the intensity of fluorescence in parallel and perpendicular directions, to the plane of polarization of the excitation wave, respectively. G is an apparatus constant that depends on the emission wavelength.
as §3

[9] = DPH fluorescence quenching, dissociation constant with RBCM liposome membrane; type: binding, human; conditions: 37 °C
Method: as §1, §4, §3

[10] = 30 µM, listed as petunidin glucoside

Chain of human serum albumin (HSA) (P02768 25-609): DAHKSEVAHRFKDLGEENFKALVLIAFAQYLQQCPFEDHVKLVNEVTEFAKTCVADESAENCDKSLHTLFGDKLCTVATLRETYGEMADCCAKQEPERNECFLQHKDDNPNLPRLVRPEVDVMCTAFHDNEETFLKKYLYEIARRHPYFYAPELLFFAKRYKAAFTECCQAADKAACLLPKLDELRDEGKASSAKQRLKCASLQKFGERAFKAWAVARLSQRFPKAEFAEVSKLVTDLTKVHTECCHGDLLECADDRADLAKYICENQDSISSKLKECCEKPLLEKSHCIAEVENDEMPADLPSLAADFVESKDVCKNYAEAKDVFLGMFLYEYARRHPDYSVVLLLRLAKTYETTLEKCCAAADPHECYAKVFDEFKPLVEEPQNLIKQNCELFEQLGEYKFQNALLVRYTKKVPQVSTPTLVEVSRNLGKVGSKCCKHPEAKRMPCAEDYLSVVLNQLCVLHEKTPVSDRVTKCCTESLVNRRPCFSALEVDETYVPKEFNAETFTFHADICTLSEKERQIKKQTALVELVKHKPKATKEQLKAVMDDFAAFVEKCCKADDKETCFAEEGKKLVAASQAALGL

Row | Kd [3] | SMILES | Changes in DPH anisotropy relative to the control ([1]; 1 µM) | Changes in DPH anisotropy relative to the control ([1]; 5 µM) | Changes in DPH anisotropy relative to the control ([1]; 10 µM) | Changes in DPH anisotropy relative to the control ([1]; 20 µM) | Changes in DPH anisotropy relative to the control ([1]; 30 µM) | Changes in MC540 fluorescence intensity relative to the control ([2]; 1 µM) | Changes in MC540 fluorescence intensity relative to the control ([2]; 10 µM) | Changes in MC540 fluorescence intensity relative to the control ([2]; 20 µM) | Changes in MC540 fluorescence intensity relative to the control ([2]; 30 µM) | Changes in MC540 fluorescence intensity relative to the control ([4]; 1 µM) | Changes in MC540 fluorescence intensity relative to the control ([4]; 5 µM) | Changes in MC540 fluorescence intensity relative to the control ([4]; 10 µM) | Changes in MC540 fluorescence intensity relative to the control ([4]; 20 µM) | Changes in MC540 fluorescence intensity relative to the control ([4]; 30 µM) | Changes in TMA-DPH anisotropy relative to the control ([5]; 1 µM) | Changes in TMA-DPH anisotropy relative to the control ([5]; 5 µM) | Changes in TMA-DPH anisotropy relative to the control ([5]; 10 µM) | Changes in TMA-DPH anisotropy relative to the control ([5]; 20 µM) | Changes in TMA-DPH anisotropy relative to the control ([5]; 30 µM) | other results
1 | 114 ± 17.2 µM | COc1cc(-c2[o+]c3cc(O)cc(O)c3cc2OC2OC(CO)C(O)C(O)C2O)ccc1O (stereo not shown) [Pn 3-glc, Peonidin 3-O-glucoside] | -7.68±0.11% | -6.50±0.15% | -6.27±0.08% | -3.12±0.03% | -0.39±0.01% | 16.40±0.66% | 29.53±2.47% | 38.00±0.57% | 50.34±2.93% | 6.40±0.34% | 10.52±0.67% | 14.98±0.94% | 24.13±1.45% | 35.68±1.88% | -3.26±0.11% | -0.96±0.03% | 0.69±0.02% | 0.19±0.003% | 1.63±0.05% | Changes in MC540 fluorescence intensity relative to the control ([2]; 5 µM): 20.98±1.80%; lifetime (LT) (pHbApr-1-Neo plasmid DNA; 0 < comp/bp < 1, decrease from 4.25 ns): about 3.25 ns; lifetime (LT) (pHbApr-1-Neo plasmid DNA; comp/bp from 1 to 10, minor further decrease): about 2.75 ns; decrease in the diffusion time (tD) (pHbApr-1-Neo plasmid DNA; tested range of comp/bp from 0 to 10): 2.5 fold; Changes in DPH anisotropy relative to the control ([6]; 1 µM): -5.23±0.04%; Changes in DPH anisotropy relative to the control ([6]; 5 µM): -2.72±0.08%; Changes in DPH anisotropy relative to the control ([6]; 10 µM): -2.02±0.05%; Changes in DPH anisotropy relative to the control ([6]; 20 µM): -0.79±0.03%; Changes in DPH anisotropy relative to the control ([6]; 30 µM): -0.03±0.002%; Stern Volmer constant KSV [7]: 11.93 ± 1.61 × 10^3 M^−1; number of binding sites n [7]: 0.91 ± 0.09; Changes in TMA-DPH anisotropy relative to the control ([8]; 1 µM): -2.75±0.12%; Changes in TMA-DPH anisotropy relative to the control ([8]; 5 µM): -0.59±0.03%; Changes in TMA-DPH anisotropy relative to the control ([8]; 10 µM): -0.56±0.02%; Changes in TMA-DPH anisotropy relative to the control ([8]; 20 µM): -0.61±0.03%; Changes in TMA-DPH anisotropy relative to the control ([8]; 30 µM): 0.65±0.04%; Kd [9]: 28.2 ± 5.11 µM
2 | 29.3 ± 5.43 µM | COc1cc(-c2[o+]c3cc(O)cc(O)c3cc2OC2OC(CO)C(O)C(O)C2O)cc(O)c1O (stereo not shown) [Pt 3-glc, Petunidin 3-O-glucoside] | -5.67±0.28% | -9.84±0.13% | -9.71±0.15% | -7.55±0.12% | -6.11±0.03% | 13.68±0.65% | 28.28±3.62% | 41.75±7.08% | 58.91±14.03% | 6.95±0.35% | 10.52±0.57% | 17.35±0.69% | 31.49±1.78% | 42.63±0.74% | -3.47±0.16% | -2.18±0.02% | -2.04±0.07% | 0.91±0.03% | -2.20±0.06% | Changes in MC540 fluorescence intensity relative to the control [2, 10]: 58.9 ± 14.0%; Changes in MC540 fluorescence intensity relative to the control [4, 10]: 42.6 ± 0.7%; decrease in the diffusion time (tD) (pHbApr-1-Neo plasmid DNA; comp/bp = 1, from about 70 ms): ~20 fold; lifetime (LT) (pHbApr-1-Neo plasmid DNA; comp/bp = 1, plasmid alone 4.25 ns): about 3.0 ns; Particle Number (PN) (pHbApr-1-Neo plasmid DNA; comp/bp = 1, plasmid alone 5): about 0.7; diffusion time (tD) (pHbApr-1-Neo plasmid DNA; comp/bp = 1, plasmid alone about 70 ms): 3.5 ms; Changes in DPH anisotropy relative to the control ([6]; 1 µM): -7.54±0.13%; Changes in DPH anisotropy relative to the control ([6]; 5 µM): -7.10±0.35%; Changes in DPH anisotropy relative to the control ([6]; 10 µM): -7.11±0.42%; Changes in DPH anisotropy relative to the control ([6]; 20 µM): -7.30±0.53%; Changes in DPH anisotropy relative to the control ([6]; 30 µM): -7.24±0.48%; Stern Volmer constant KSV [7]: 5.50 ± 0.94 × 10^3 M^−1; number of binding sites n [7]: 0.92 ± 0.04; Changes in TMA-DPH anisotropy relative to the control ([8]; 1 µM): -2.24±0.09%; Changes in TMA-DPH anisotropy relative to the control ([8]; 5 µM): -0.99±0.03%; Changes in TMA-DPH anisotropy relative to the control ([8]; 10 µM): 1.63±0.07%; Changes in TMA-DPH anisotropy relative to the control ([8]; 20 µM): -0.47±0.02%; Changes in TMA-DPH anisotropy relative to the control ([8]; 30 µM): 3.60±0.11%; Kd [9]: 46.9 ± 6.8 µM
